Measurements taken from patent EP0496332A1, “Alpha-aminoquinolinoyl-[3]-penicillines, process for their preparation and their use as antibacterial agents” (ARZNEIMITTELWERK DRESDEN GmbH, priority 1991, dated 1992).
In brackets after ≈: the same amount, converted by molar mass.

Legend:
Experiment in all cases: In-vitro test, inhibitory concentration by dilution series
Format in all cases: cell-based
[1] = test system: Staphylococcus aureus SG 511; settings: SG511; II = Staphylococcus aureus SG 511; step = concentration with no visible growth; read-out: Hemmkonzentration nach Verdünnung (Verdünnungsreihe) (converted)
Text: (§1) Die antibiotische Wirksamkeit erfindungsgemäßer Verbindungen wurde in der üblichen Weise durch Ermittlung der Hemmkonzentrationen nach Verdünnung ermittelt.
(§2) Die erhaltenen Ergebnisse sind in der nachstehenden Tabelle zusammengefaßt.

[2] = test system: Staphylococcus epidermidis; settings: X = Staphylococcus epidermidis, Laborstämme; step = concentration with no visible growth; read-out: Hemmkonzentration nach Verdünnung (Verdünnungsreihe) (converted)
Text: as §1, §2

[3] = test system: Pseudomonas aeruginosa NCTC 10701; settings: NCTC10701; IV = Pseudomonas aeruginosa NCTC 10701; step = concentration with no visible growth; read-out: Hemmkonzentration nach Verdünnung (Verdünnungsreihe) (converted)
Text: as §1, §2

Escherichia coli = settings: XII = Escherichia coli, Laborstämme; step = concentration with no visible growth; read-out: Hemmkonzentration nach Verdünnung (Verdünnungsreihe) (converted)
Text: as §1, §2

Enterobacter cloacae = settings: XIII = Enterobacter cloacae, Laborstämme; step = concentration with no visible growth; read-out: Hemmkonzentration nach Verdünnung (Verdünnungsreihe) (converted)
Text: as §1, §2

Proteus vulgaris OX 19 = settings: OX19; III = Proteus vulgaris OX 19; step = concentration with no visible growth; read-out: Hemmkonzentration nach Verdünnung (Verdünnungsreihe) (converted)
Text: as §1, §2

[4] = test system: Serratia marcescens SG 621; settings: SG621; VIII = Serratia marcescens SG 621; step = concentration with no visible growth; read-out: Hemmkonzentration nach Verdünnung (Verdünnungsreihe) (converted)
Text: as §1, §2

Citrobacter freudii = settings: XIV = Citrobacter freudii, Laborstämme; step = concentration with no visible growth; read-out: Hemmkonzentration nach Verdünnung (Verdünnungsreihe) (converted)
Text: as §1, §2

Bacillus subtilis SG 119 = settings: SG119; I = Bacillus subtilis SG 119; step = concentration with no visible growth; read-out: Hemmkonzentration nach Verdünnung (Verdünnungsreihe) (converted)
Text: as §1, §2

Enterokokken = settings: XI = Enterokokken, Laborstämme; step = concentration with no visible growth; read-out: Hemmkonzentration nach Verdünnung (Verdünnungsreihe) (converted)
Text: as §1, §2

[5] = test system: Pseudomonas aeruginosa SG 137; settings: SG137; V = Pseudomonas aeruginosa SG 137; step = concentration with no visible growth; read-out: Hemmkonzentration nach Verdünnung (Verdünnungsreihe) (converted)
Text: as §1, §2

[6] = test system: Klebsiella pneumoniae SG 117; settings: SG117; VII = Klebsiella pneumoniae SG 117; step = concentration with no visible growth; read-out: Hemmkonzentration nach Verdünnung (Verdünnungsreihe) (converted)
Text: as §1, §2

Staphylococcus aureus = settings: IX = Staphylococcus aureus, Laborstämme; step = concentration with no visible growth; read-out: Hemmkonzentration nach Verdünnung (Verdünnungsreihe) (converted)
Text: as §1, §2

[7] = test system: Salmonella gallinarium ATCC 9184; settings: ATCC9184; VI = Salmonella gallinarium ATCC 9184; step = concentration with no visible growth; read-out: Hemmkonzentration nach Verdünnung (Verdünnungsreihe) (converted)
Text: as §1, §2

Work on `CC1(C)S[C@@H]2[C@H](NC(=O)[C@H](N)c3ccccc3)C(=O)N2[C@H]1C(=O)O` [Ampicillin, reference compound] yielded an MIC [1] of 0.78 µM (≈ 0.273 µg/mL), an MIC [2] of 6.25 µM (≈ 2.18 µg/mL) and an MIC [3] of 200 µM (≈ 69.9 µg/mL). For the same compound, the MIC (Escherichia coli) was 12.5 µM (≈ 4.37 µg/mL), the MIC (Enterobacter cloacae) was over 200 µM and the MIC (Proteus vulgaris OX 19) was 12.5 µM (≈ 4.37 µg/mL). For the same compound, the MIC [4] was 50 µM (≈ 17.5 µg/mL), the MIC (Citrobacter freudii) was over 200 µM and the MIC (Bacillus subtilis SG 119) was 0.2 µM (≈ 0.0699 µg/mL). It also gave an MIC (Enterokokken) of 6.25 µM (≈ 2.18 µg/mL), an MIC [5] of over 200 µM and an MIC [6] of 12.5 µM (≈ 4.37 µg/mL). The MIC (Staphylococcus aureus) was 12.5 µM (≈ 4.37 µg/mL) and the MIC [7] was 0.78 µM (≈ 0.273 µg/mL).
`CCc1cc2c(OC(=O)OCC(C)C)c(C(=O)N[C@@H](C(=O)N[C@@H]3C(=O)N4[C@@H]3SC(C)(C)[C@@H]4C(=O)O)c3ccccc3)cnc2cc1COC(C)CC` (stereo partly drawn) [Beisp. 22, 6-[D-(-)-α-([4'-Isobutoxycarbonyloxy-6'-ethyl-7'-s-butoxymethylen-chinolinoyl-3']-carboxamido)-α-phenylacetamido]-penicillansäure-Natriumsalz] showed an MIC [1] of 1.56 µM (≈ 1.15 µg/mL), an MIC [2] of 12.5 µM (≈ 9.19 µg/mL) and an MIC [3] of 0.78 µM (≈ 0.573 µg/mL). It also gave an MIC (Escherichia coli) of 1.56 µM (≈ 1.15 µg/mL), an MIC (Enterobacter cloacae) of 6.25 µM (≈ 4.59 µg/mL) and an MIC (Proteus vulgaris OX 19) of 0.39 µM (≈ 0.287 µg/mL). For the same compound, the MIC [4] was 1.56 µM (≈ 1.15 µg/mL), the MIC (Citrobacter freudii) was 3.12 µM (≈ 2.29 µg/mL) and the MIC (Bacillus subtilis SG 119) was 1.56 µM (≈ 1.15 µg/mL). For the same compound, the MIC (Enterokokken) was 12.5 µM (≈ 9.19 µg/mL), the MIC [5] was 12.5 µM (≈ 9.19 µg/mL) and the MIC [6] was 0.78 µM (≈ 0.573 µg/mL). It also gave an MIC (Staphylococcus aureus) of 25 µM (≈ 18.4 µg/mL) and an MIC [7] of 1.56 µM (≈ 1.15 µg/mL).
With `CCCCOCc1cc2ncc(C(=O)N[C@@H](C(=O)N[C@@H]3C(=O)N4[C@@H]3SC(C)(C)[C@@H]4C(=O)O)c3ccccc3)c(OC(=O)OCC)c2cc1CC` [Beisp. 4, 6-[D-(-)-α-([4'-Ethoxycarbonyloxy-6'-ethyl-7'-n-butoxymethylen-chinolinoyl-3']-carboxamido)-α-phenylacetamido]-penicillansäure-Natriumsalz] the MIC [1] was 0.78 µM (≈ 0.551 µg/mL), the MIC [2] was 3.12 µM (≈ 2.21 µg/mL) and the MIC [3] was 1.56 µM (≈ 1.1 µg/mL). For the same compound, the MIC (Escherichia coli) was 1.56 µM (≈ 1.1 µg/mL), the MIC (Enterobacter cloacae) was 3.12 µM (≈ 2.21 µg/mL) and the MIC (Proteus vulgaris OX 19) was 0.78 µM (≈ 0.551 µg/mL). It also gave an MIC [4] of 1.56 µM (≈ 1.1 µg/mL), an MIC (Citrobacter freudii) of 6.25 µM (≈ 4.42 µg/mL) and an MIC (Bacillus subtilis SG 119) of 0.39 µM (≈ 0.276 µg/mL). The MIC (Enterokokken) was 6.25 µM (≈ 4.42 µg/mL), the MIC [5] was 3.12 µM (≈ 2.21 µg/mL) and the MIC [6] was 1.56 µM (≈ 1.1 µg/mL). The MIC (Staphylococcus aureus) was 12.5 µM (≈ 8.84 µg/mL) and the MIC [7] was 1.56 µM (≈ 1.1 µg/mL).
`CCCOCc1cc2ncc(C(=O)N[C@@H](C(=O)N[C@@H]3C(=O)N4[C@@H]3SC(C)(C)[C@@H]4C(=O)O)c3ccccc3)c(OC(=O)OCC)c2cc1CC` [Beisp. 5, 6-[D-(-)-α-([4'-Ethoxycarbonyloxy-6'-ethyl-7'-n-propoxymethylen-chinolinoyl-3']-carboxamido)-α-phenylacetamido]-penicillansäure-Natriumsalz] gave an MIC [1] of 1.56 µM (≈ 1.08 µg/mL), an MIC [2] of 3.12 µM (≈ 2.16 µg/mL) and an MIC [3] of 0.78 µM (≈ 0.54 µg/mL). It also gave an MIC (Escherichia coli) of 1.56 µM (≈ 1.08 µg/mL), an MIC (Enterobacter cloacae) of 6.25 µM (≈ 4.33 µg/mL) and an MIC (Proteus vulgaris OX 19) of 0.78 µM (≈ 0.54 µg/mL). The MIC [4] was 1.56 µM (≈ 1.08 µg/mL), the MIC (Citrobacter freudii) was 6.25 µM (≈ 4.33 µg/mL) and the MIC (Bacillus subtilis SG 119) was 0.78 µM (≈ 0.54 µg/mL). For the same compound, the MIC (Enterokokken) was 6.25 µM (≈ 4.33 µg/mL), the MIC [5] was 3.12 µM (≈ 2.16 µg/mL) and the MIC [6] was 3.12 µM (≈ 2.16 µg/mL). It also gave an MIC (Staphylococcus aureus) of 6.25 µM (≈ 4.33 µg/mL) and an MIC [7] of 3.12 µM (≈ 2.16 µg/mL).
Compound `COc1ccc2ncc(C(=O)N[C@@H](C(=O)N[C@@H]3C(=O)N4[C@@H]3SC(C)(C)[C@@H]4C(=O)O)c3ccccc3)c(O)c2c1` [Beisp. 9, 6-[D-(-)-α-([4'-Hydroxy-6'-methoxy-chinolinoyl-3']-carboxamido)-α-phenylacetamido]-penicillansäure-Natriumsalz] has an MIC [1] of 1.56 µM (≈ 0.859 µg/mL), an MIC [2] of 6.25 µM (≈ 3.44 µg/mL) and an MIC [3] of 0.39 µM (≈ 0.215 µg/mL). It also gave an MIC (Escherichia coli) of 3.12 µM (≈ 1.72 µg/mL), an MIC (Enterobacter cloacae) of 25 µM (≈ 13.8 µg/mL) and an MIC (Proteus vulgaris OX 19) of 0.39 µM (≈ 0.215 µg/mL). For the same compound, the MIC [4] was 1.56 µM (≈ 0.859 µg/mL), the MIC (Citrobacter freudii) was 25 µM (≈ 13.8 µg/mL) and the MIC (Bacillus subtilis SG 119) was 1.56 µM (≈ 0.859 µg/mL). It also gave an MIC (Enterokokken) of 25 µM (≈ 13.8 µg/mL), an MIC [5] of 25 µM (≈ 13.8 µg/mL) and an MIC [6] of 1.56 µM (≈ 0.859 µg/mL). It also gave an MIC (Staphylococcus aureus) of 12.5 µM (≈ 6.88 µg/mL) and an MIC [7] of 1.56 µM (≈ 0.859 µg/mL).
Compound `CCc1cc2c(OC(=O)OCC(C)C)c(C(=O)N[C@@H](C(=O)N[C@@H]3C(=O)N4[C@@H]3SC(C)(C)[C@@H]4C(=O)O)c3ccccc3)cnc2cc1COC` [Beisp. 18, 6-[D-(-)-α-([4'-Isobutoxycarbonyloxy-6'-ethyl-7'-methoxymethylen-chinolinoyl-3']-carboxamido)-α-phenylacetamido]-penicillansäure-Natriumsalz] has an MIC [1] of 1.56 µM (≈ 1.08 µg/mL), an MIC [2] of 6.25 µM (≈ 4.33 µg/mL) and an MIC [3] of 0.78 µM (≈ 0.54 µg/mL). It also gave an MIC (Escherichia coli) of 1.56 µM (≈ 1.08 µg/mL), an MIC (Enterobacter cloacae) of 6.25 µM (≈ 4.33 µg/mL) and an MIC (Proteus vulgaris OX 19) of 0.39 µM (≈ 0.27 µg/mL). The MIC [4] was 3.12 µM (≈ 2.16 µg/mL), the MIC (Citrobacter freudii) was 6.25 µM (≈ 4.33 µg/mL) and the MIC (Bacillus subtilis SG 119) was 1.56 µM (≈ 1.08 µg/mL). For the same compound, the MIC (Enterokokken) was 25 µM (≈ 17.3 µg/mL), the MIC [5] was 6.25 µM (≈ 4.33 µg/mL) and the MIC [6] was 0.78 µM (≈ 0.54 µg/mL). It also gave an MIC (Staphylococcus aureus) of 0.39 µM (≈ 0.27 µg/mL) and an MIC [7] of 3.12 µM (≈ 2.16 µg/mL).
`CCc1cc2c(OC(=O)OCC(C)C)c(C(=O)N[C@@H](C(=O)N[C@@H]3C(=O)N4[C@@H]3SC(C)(C)[C@@H]4C(=O)O)c3ccccc3)cnc2cc1COC(C)C` [Beisp. 21, 6-[D-(-)-α-([4'-Isobutoxycarbonyloxy-6'-ethyl-7'-isopropoxymethylen-chinolinoyl-3']-carboxamido)-α-phenylacetamido]-penicillansäure-Natriumsalz] showed an MIC [1] of 1.56 µM (≈ 1.12 µg/mL), an MIC [2] of 6.25 µM (≈ 4.51 µg/mL) and an MIC [3] of 0.78 µM (≈ 0.562 µg/mL). It also gave an MIC (Escherichia coli) of 1.56 µM (≈ 1.12 µg/mL), an MIC (Enterobacter cloacae) of 6.25 µM (≈ 4.51 µg/mL) and an MIC (Proteus vulgaris OX 19) of 0.39 µM (≈ 0.281 µg/mL). The MIC [4] was 1.56 µM (≈ 1.12 µg/mL), the MIC (Citrobacter freudii) was 6.25 µM (≈ 4.51 µg/mL) and the MIC (Bacillus subtilis SG 119) was 1.56 µM (≈ 1.12 µg/mL). For the same compound, the MIC (Enterokokken) was 12.5 µM (≈ 9.01 µg/mL), the MIC [5] was 6.25 µM (≈ 4.51 µg/mL) and the MIC [6] was 0.78 µM (≈ 0.562 µg/mL). It also gave an MIC (Staphylococcus aureus) of 12.5 µM (≈ 9.01 µg/mL) and an MIC [7] of 3.12 µM (≈ 2.25 µg/mL).
